Data on eleven compounds can be found in ChEMBL document CHEMBL1152706, “Stieglitz rearrangement of N,N-dichloro-beta,beta-disubstituted taurines under mild aqueous conditions” (Bioorg Med Chem Lett, 2009).

SMILES strings stand for the structures. Where only a bound is given, the exact number is not on record here.

Common to all, as to format: physicochemical
What all share (settings): buffer

Data set [1] can be described thus: Chemical stability assessed as half life at pH 4 at 40 degC.
Data set [2] in a line: Chemical stability assessed as half life at pH 7 at 40 degC.
Data set [3] can be described thus: Chemical stability assessed as half life at pH 4 at 25 degC.

Turning to `O=S(=O)([O-])CCCCCN(Cl)Cl.[Na+]`, the half-life (commonly the time in which the quantity being followed falls by half) in data set [1] is 120 h; in data set [2] it was 24 h.

Take `CC(C)(CS(=O)(=O)[O-])N(Cl)Cl.[Na+]`: the t1/2 in data set [1] is greater than 2 yr. Take `O=S(=O)([O-])CCCCN(Cl)Cl.[Na+]`: in data set [3], the half-life was 6 h. With `CCC(CC)(CS(=O)(=O)[O-])N(Cl)Cl.[Na+]`, the half-life in data set [1] was 24 h; in data set [2] it was 12 h. As for `CCCC(CCC)(CS(=O)(=O)[O-])N(Cl)Cl.[Na+]`, the half-life is 12 h in data set [1] and 48 h in data set [2].

For the compound `CC(C)C(CS(=O)(=O)[O-])(C(C)C)N(Cl)Cl.[Na+]`, the half-life in data set [3] was less than 0.167 h. With `O=S(=O)([O-])CCCCCCN(Cl)Cl.[Na+]`, in data set [1], the half-life is 168 h. Same read-out and setting: the figure for `O=S(=O)([O-])CCCCCCCN(Cl)Cl.[Na+]` is 48 h. With `COCC(C)(CS(=O)(=O)[O-])N(Cl)Cl.[Na+]` (centres undefined), the half-life in data set [3] was 36 h. With `CC1(C)CC(C)(C)CC(CS(=O)(=O)[O-])(N(Cl)Cl)C1.[Na+]`, the half-life in data set [1] was 24 h.

As to `O=S(=O)([O-])CCOCCN(Cl)Cl.[Na+]`, in data set [3], the half-life is less than 24 h.
